Results taken from the NIST ThermoML archive (doi:10.1021/je050003x).

Assay: cn = amount concentration of the nth substance listed, in mol/dm3
Details: 101.3 kPa, Liquid, Open capillary

[Cl-].[Cl-].[Cl-].[Cr+3] [chromium chloride] + O
binary diffusion coefficient [m2/s]
Details	c1 = 0.005	c1 = 0.008	c1 = 0.01	c1 = 0.02	c1 = 0.03	c1 = 0.05
298.15 K	1.33e-09	1.2e-09	1.17e-09	1.1e-09	1.06e-09	1.03e-09
303.15 K	1.85e-09	1.33e-09	1.31e-09	1.26e-09	1.2e-09	1.17e-09
